How the values were obtained:
Experiment in all cases: relative viability (nuclei count vs DMSO), 5 days (fraction); higher = more cells survive
ABC-1 = test system: ABC-1
Summary of the method: (§1)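 Nuclei were stained with Hoechst during a one-step fixation (final 0.05% Triton X-100, 1% formaldehyde, 1 ug/ml Hoechst) carried out 5 days after dosing, then counted on 4× images. The cells, lung cancer lines in 1536-well plates, had been dosed by pin tool the day after seeding with one drug alone or a fixed anchor-drug dose plus five library-drug doses (not always all listed) in √10 steps. Relative viability is the nuclei count in treated wells divided by that in vehicle wells, and each value is the median of duplicate plates.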

COR-L23 = test system: COR-L23
Summary of the method: as §1

EPLC-272H = test system: EPLC-272H
Summary of the method: as §1

HARA = test system: HARA
Summary of the method: as §1

HCC-15 = test system: HCC-15
Summary of the method: as §1

HCC-78 = test system: HCC-78
Summary of the method: as §1

LC-2-ad = test system: LC-2-ad
Summary of the method: as §1

LU99A = test system: LU99A
Summary of the method: as §1

NCI-H1651 = test system: NCI-H1651
Summary of the method: as §1

NCI-H1915 = test system: NCI-H1915
Summary of the method: as §1

NCI-H1993 = test system: NCI-H1993
Summary of the method: as §1

NCI-H2009 = test system: NCI-H2009
Summary of the method: as §1

NCI-H2085 = test system: NCI-H2085
Summary of the method: as §1

NCI-H2126 = test system: NCI-H2126
Summary of the method: as §1

NCI-H2347 = test system: NCI-H2347
Summary of the method: as §1

NCI-H358 = test system: NCI-H358
Summary of the method: as §1

NCI-H460 = test system: NCI-H460
Summary of the method: as §1

NCI-H650 = test system: NCI-H650
Summary of the method: as §1

NCI-H838 = test system: NCI-H838
Summary of the method: as §1

PC-14 = test system: PC-14
Summary of the method: as §1

SW 1573 = test system: SW 1573
Summary of the method: as §1

UMC-11 = test system: UMC-11
Summary of the method: as §1

COc1cc(N2CCC(C(N)=O)CC2)ccc1Nc1nc(N)c(Cl)c(Nc2ccccc2S(=O)(=O)C(C)C)n1 [HG-5-88-01] + C[C@]1(O)C[C@@H](c2nc(-c3ccc4ccc(-c5ccccc5)nc4c3)c3c(N)nccn32)C1 [Linsitinib] (partner 1 µM)
relative viability (ABC-1; first compound 0.04 µM): 0.679
relative viability (ABC-1; first compound 0.1265 µM): 0.894
relative viability (ABC-1; first compound 0.4 µM): 0.815
relative viability (ABC-1; first compound 1.265 µM): 0.668
relative viability (ABC-1; first compound 4 µM): 1.01
relative viability (COR-L23; first compound 0.04 µM): 0.885
relative viability (COR-L23; first compound 0.1265 µM): 0.888
relative viability (COR-L23; first compound 0.4 µM): 0.872
relative viability (COR-L23; first compound 1.265 µM): 0.738
relative viability (COR-L23; first compound 4 µM): 0.757
relative viability (EPLC-272H; first compound 0.04 µM): 1.09
relative viability (EPLC-272H; first compound 0.1265 µM): 1.25
relative viability (EPLC-272H; first compound 0.4 µM): 1.38
relative viability (EPLC-272H; first compound 1.265 µM): 1.02
relative viability (EPLC-272H; first compound 4 µM): 0.264
relative viability (HARA; first compound 0.04 µM): 0.946
relative viability (HARA; first compound 0.1265 µM): 0.916
relative viability (HARA; first compound 0.4 µM): 0.909
relative viability (HARA; first compound 1.265 µM): 1
relative viability (HARA; first compound 4 µM): 0.92
relative viability (HCC-15; first compound 0.04 µM): 0.862
relative viability (HCC-15; first compound 0.1265 µM): 0.837
relative viability (HCC-15; first compound 0.4 µM): 0.92
relative viability (HCC-15; first compound 1.265 µM): 0.835
relative viability (HCC-15; first compound 4 µM): 0.763
relative viability (HCC-78; first compound 0.04 µM): 0.574
relative viability (HCC-78; first compound 0.1265 µM): 0.401
relative viability (HCC-78; first compound 0.4 µM): 0.273
relative viability (HCC-78; first compound 1.265 µM): 0.222
relative viability (HCC-78; first compound 4 µM): 0.263
relative viability (LC-2-ad; first compound 0.04 µM): 0.817
relative viability (LC-2-ad; first compound 0.1265 µM): 0.861
relative viability (LC-2-ad; first compound 0.4 µM): 0.862
relative viability (LC-2-ad; first compound 1.265 µM): 0.852
relative viability (LC-2-ad; first compound 4 µM): 0.92
relative viability (LU99A; first compound 0.04 µM): 0.552
relative viability (LU99A; first compound 0.1265 µM): 0.535
relative viability (LU99A; first compound 0.4 µM): 0.531
relative viability (LU99A; first compound 1.265 µM): 0.578
relative viability (LU99A; first compound 4 µM): 0.589
relative viability (NCI-H1651; first compound 0.04 µM): 1.02
relative viability (NCI-H1651; first compound 0.1265 µM): 1.09
relative viability (NCI-H1651; first compound 0.4 µM): 0.991
relative viability (NCI-H1651; first compound 1.265 µM): 1.07
relative viability (NCI-H1651; first compound 4 µM): 1.19
relative viability (NCI-H1915; first compound 0.04 µM): 1.09
relative viability (NCI-H1915; first compound 0.1265 µM): 1.11
relative viability (NCI-H1915; first compound 0.4 µM): 1.14
relative viability (NCI-H1915; first compound 1.265 µM): 1.15
relative viability (NCI-H1915; first compound 4 µM): 0.674
relative viability (NCI-H1993; first compound 0.04 µM): 0.807
relative viability (NCI-H1993; first compound 0.1265 µM): 0.697
relative viability (NCI-H1993; first compound 0.4 µM): 0.732
relative viability (NCI-H1993; first compound 1.265 µM): 0.61
relative viability (NCI-H1993; first compound 4 µM): 0.722
relative viability (NCI-H2009; first compound 0.04 µM): 1.23
relative viability (NCI-H2009; first compound 0.1265 µM): 1.14
relative viability (NCI-H2009; first compound 0.4 µM): 1.23
relative viability (NCI-H2009; first compound 1.265 µM): 1.12
relative viability (NCI-H2009; first compound 4 µM): 1.17
relative viability (NCI-H2085; first compound 0.04 µM): 0.913
relative viability (NCI-H2085; first compound 0.1265 µM): 0.924
relative viability (NCI-H2085; first compound 0.4 µM): 0.809
relative viability (NCI-H2085; first compound 1.265 µM): 0.748
relative viability (NCI-H2085; first compound 4 µM): 0.92
relative viability (NCI-H2126; first compound 0.04 µM): 0.641
relative viability (NCI-H2126; first compound 0.1265 µM): 0.76
relative viability (NCI-H2126; first compound 0.4 µM): 0.721
relative viability (NCI-H2126; first compound 1.265 µM): 0.69
relative viability (NCI-H2126; first compound 4 µM): 0.716
relative viability (NCI-H2347; first compound 0.04 µM): 0.988
relative viability (NCI-H2347; first compound 0.1265 µM): 0.933
relative viability (NCI-H2347; first compound 0.4 µM): 1.1
relative viability (NCI-H2347; first compound 1.265 µM): 0.959
relative viability (NCI-H2347; first compound 4 µM): 1.03
relative viability (NCI-H358; first compound 0.04 µM): 0.696
relative viability (NCI-H358; first compound 0.1265 µM): 0.707
relative viability (NCI-H358; first compound 0.4 µM): 0.625
relative viability (NCI-H358; first compound 1.265 µM): 0.484
relative viability (NCI-H358; first compound 4 µM): 0.387
relative viability (NCI-H460; first compound 0.04 µM): 0.73
relative viability (NCI-H460; first compound 0.1265 µM): 0.81
relative viability (NCI-H460; first compound 0.4 µM): 0.784
relative viability (NCI-H460; first compound 1.265 µM): 0.81
relative viability (NCI-H460; first compound 4 µM): 1.41
relative viability (NCI-H650; first compound 0.04 µM): 1.01
relative viability (NCI-H650; first compound 0.1265 µM): 0.985
relative viability (NCI-H650; first compound 0.4 µM): 0.835
relative viability (NCI-H650; first compound 1.265 µM): 0.936
relative viability (NCI-H650; first compound 4 µM): 0.492
relative viability (NCI-H838; first compound 0.04 µM): 0.972
relative viability (NCI-H838; first compound 0.1265 µM): 1.07
relative viability (NCI-H838; first compound 0.4 µM): 0.885
relative viability (NCI-H838; first compound 1.265 µM): 0.915
relative viability (NCI-H838; first compound 4 µM): 0.956
relative viability (PC-14; first compound 0.04 µM): 0.977
relative viability (PC-14; first compound 0.1265 µM): 1.02
relative viability (PC-14; first compound 0.4 µM): 0.955
relative viability (PC-14; first compound 1.265 µM): 0.917
relative viability (PC-14; first compound 4 µM): 0.331
relative viability (SW 1573; first compound 0.04 µM): 0.796
relative viability (SW 1573; first compound 0.1265 µM): 0.961
relative viability (SW 1573; first compound 0.4 µM): 0.855
relative viability (SW 1573; first compound 1.265 µM): 0.704
relative viability (SW 1573; first compound 4 µM): 0.83
relative viability (UMC-11; first compound 0.04 µM): 1.03
relative viability (UMC-11; first compound 0.1265 µM): 0.931
relative viability (UMC-11; first compound 0.4 µM): 0.698
relative viability (UMC-11; first compound 1.265 µM): 1.01
relative viability (UMC-11; first compound 4 µM): 1.1

Source: the supplement of paper PMC10307832
